Results as given in patent publication EP1433779A1, “Use of nitriles as inhibitors of non-proteolytic enzymes” (Jerini AG, priority 2002, dated 2004).

Legend:
Assay in all cases: biochemical
[1] = biological target: Human Cyclosporin A receptor with 18 kDa molecular weight, hCyp18 (Homo sapiens, UniProt P62937)
[2] = biological target: T1, Bacterial Juglon sensitive non proteolytic enzyme, EcParv (Escherichia coli, UniProt P0A9L5)
T1 sequence (P0A9L5 1-93): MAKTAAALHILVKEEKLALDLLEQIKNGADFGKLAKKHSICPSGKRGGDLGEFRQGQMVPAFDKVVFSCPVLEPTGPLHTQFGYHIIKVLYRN

[3] = biological target: First described human Rapamycin receptor, hFKBP12 (Homo sapiens, UniProt P62942)
[4] = biological target: Leishmonia pneumophila virulence Cyclosporin A receptor with 18 kDa molecular weight, LpCyp18 (Legionella pneumophila subsp. pneumophila, UniProt Q5ZRZ4)
Leishmonia pneumophila virulence Cyclosporin A receptor with 18 kDa molecular weight, LpCyp18, sequence (Q5ZRZ4 1-164 limits assumed): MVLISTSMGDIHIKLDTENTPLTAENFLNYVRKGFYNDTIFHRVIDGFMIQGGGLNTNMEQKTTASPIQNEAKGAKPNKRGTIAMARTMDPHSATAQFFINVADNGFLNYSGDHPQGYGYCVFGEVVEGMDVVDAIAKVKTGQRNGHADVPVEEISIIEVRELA

Human Cyclosporin A receptor with 18 kDa molecular weight, hCyp18, sequence (P62937 whole entry): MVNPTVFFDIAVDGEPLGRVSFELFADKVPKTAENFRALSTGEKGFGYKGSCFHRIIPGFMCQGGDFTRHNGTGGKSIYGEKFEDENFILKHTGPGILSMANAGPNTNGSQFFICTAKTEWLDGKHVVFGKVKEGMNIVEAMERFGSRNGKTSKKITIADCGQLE
First described human Rapamycin receptor, hFKBP12, sequence (P62942 whole entry): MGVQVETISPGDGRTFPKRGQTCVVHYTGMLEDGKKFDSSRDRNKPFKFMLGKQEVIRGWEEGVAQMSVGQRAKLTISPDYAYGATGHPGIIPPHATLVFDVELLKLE

N#CCCNC(=S)Nc1ccc([N+](=O)[O-])cc1 [Compound 4]
IC50 [1]: > 100 µM | IC50 [2]: 10 to 50 µM | IC50 [3]: > 100 µM | IC50 [4]: > 100 µM
